US7915402B2, “Antioxidant inflammation modulators: oleanolic acid derivatives with saturation in the C-ring” (Reata Pharmaceuticals, Inc., priority 2008, dated 2011)
pIC50: −log10 of the molar value. Converted amounts (≈) assume the structure as drawn. Like-named read-outs stand apart in the source and are kept apart here. Marks after values point to notes of the source that are not given here.

Columns and labels:
[1] = Aqueous solubility determination (Multiscreen solubility filter plate, UV/vis); type: physicochemical; conditions: universal aqueous buffer, pH 7.4, aqueous buffer, kinetic from dmso stock, universal aqueous buffer pH 7.4, 90 min, room temperature
Description: Aqueous Solubility Determination. The following procedure was used to obtain the aqueous solubility results summarized in Example 8. Step 1. Determination of optimal UV/vis wavelengths and generation of standard curves for a compound of interest: • (1) For eight standard calibration curves (one plate), prepare 34 mL of 50:50 (v:v) universal buffer:acetonitrile in a 50 mL tube. • (2) Using a multichannel pipet, dispense (in μL) the buffer:acetonitrile in a deep well plate as follows:
• (6) Cover plate with lid and shake (200-300 rpm) at room temperature for 20 minutes. • (7) Mix all wells by pipetting up and down 10 times. • (8) Transfer 120 μL from each well to a UV transparent plate. Cover and shake for 3-5 minutes. Remove any bubbles in the wells using a pipet. • (9) Read from 220 nm to 500 nm at 10 nm increments on a spectrophotometer (e.g., SpectraMax®).
Step 2. Compound Solubility Testing Procedures Using the Millipore™ Multiscreen® Solubility Filter Plate.
Universal Aqueous Buffer: • (a) To prepare 500 mL of universal buffer, add the following: 250 mL Nanopure water; 1.36 mL (45 mM) ethanolamine; 3.08 g (45 mM) potassium dihydrogen phosphate; 2.21 g (45 mM) potassium acetate; thoroughly mix. • (b) Adjust pH to 7.4 with HCl and q.s. to 500 mL with 0.15 M KCl. • (c) Filter to remove particulates and reduce bacterial growth. • (d) Store at 4° C. in the dark.
Solubility Protocol: • (a) Add 285 μL of Universal Aqueous Buffer to desired wells of the Millipore™ Multiscreen® Solubility filter plate. • (b) Add 15 μL of 10 mM compound in DMSO to the appropriate wells. Add 15 μL of 100% DMSO only to 6 wells of the filter plate for blanks. • (c) Using a multichannel pipet, mix wells by pipetting up and down 10 times. Be careful not to touch the filters in the plate with the tips. • (d) Cover and gently shake (200-300 rpm) filter plate for 90 minutes at room temperature. • (e) Vacuum filter the aqueous solution from the Multiscreen® solubility filter plate into a polypropylene V-bottom plate. • (f) Transfer 60 μL of filtrate to a UV transparent plate (Greiner® UV-Star Analysis Plate). • (g) Add 60 μL of acetonitrile to each well and mix by pipetting up and down 10 times. • (h) Cover and gently shake for 3-5 minutes. Remove any bubbles with a pipet. • (i) Measure the absorbance of each well in the plate on the spectrophotometer (UV/vis) at the desired wavelength. For compounds in a plate with different absorbance peaks, set the spectrophotometer to read a spectrum (e.g., from 220 nm to 460 nm). • (j) Identify concentration using measured absorbance for each compound and the predetermined standard curve (see Step 1).

[2] = tested on: IFNγ-induced NO production in RAW264.7 macrophages; assay: Suppression of IFNγ-induced NO production (Griess reagent); type: cell-based, mouse; conditions: RAW264.7, 20 ng/ml IFNγ 24 h, 2 h pre-treatment
Description: (§1) FIGS. 1-8 and 32-34. Inhibition of NO Production. RAW264.7 macrophages were pre-treated with DMSO or drugs at various concentrations (nM) for 2 hours, then treated with 20 ng/ml IFNγ for 24 hours. NO concentration in media was determined using a Griess reagent system; cell viability was determined using WST-1 reagent.
(§2) Nitric Oxide production and cell viability. RAW264.7 macrophages were pre-treated with DMSO or drugs for 2 hours, then treated with recombinant mouse IFNγ (Sigma) for 24 hours. NO concentration in media was determined using the Griess reagent system (Promega). Cell viability was determined using WST-1 reagent (Roche).

RAW264.7 macrophages = assay: Cell viability, WST-1 reagent; type: cell-based, mouse; conditions: RAW264.7 (20 ng/ml IFNγ)
Description: as §1, §2

HO-1 = assay: Nrf2 target gene induction, HO-1 mRNA (qPCR); type: cell-based, human; conditions: MDA-MB-435 cells
Description: (§3) FIGS. 17-20. Induction of HO-1. MDA-MB-435 human melanoma cells were treated with vehicle (DMSO) or the indicated compounds and concentrations for 16 hours. HO-1 mRNA levels were quantified using qPCR and were normalized relative to a DMSO-treated sample run in parallel. Values are averages of duplicate wells.
as §3, with “FIG. 21.” for “FIGS. 17-20.”, “HO-1, TrxR1 and γ-GCS.” for “HO-1.”, “HO-1, thioredoxin reductase-1 (TrxR1), and γ-glutamylcysteine synthetase (γ-GCS)” for “HO-1”
as §3, with “Nrf2 target gene induction.” for “FIGS. 17-20. Induction of HO-1.”, “HO-1, thioredoxin reductase-1 (TrxR1), γ-glutamylcysteine synthetase (γ-GCS), and ferritin heavy chain” for “HO-1”, “wells. Primer sequences are as follows.” for “wells.”

[3] = tested on: thioredoxin reductase-1 (TrxR1); assay: Nrf2 target gene induction, TrxR1 mRNA (qPCR); type: cell-based, human; conditions: MDA-MB-435 cells, 400 nM; percent of induction observed for 402
Description: as §3, with “FIG. 21.” for “FIGS. 17-20.”, “HO-1, TrxR1 and γ-GCS.” for “HO-1.”, “HO-1, thioredoxin reductase-1 (TrxR1), and γ-glutamylcysteine synthetase (γ-GCS)” for “HO-1”
as §3, with “FIG. 22.” for “FIGS. 17-20.”, “TrxR1.” for “HO-1.”, “Thioredoxin reductase-1 (TrxR1)” for “HO-1”, “wells. Compounds 401, 402-19 and 402-53 are comparison compounds (see Example 1).” for “wells.”
as §3, with “Nrf2 target gene induction.” for “FIGS. 17-20. Induction of HO-1.”, “HO-1, thioredoxin reductase-1 (TrxR1), γ-glutamylcysteine synthetase (γ-GCS), and ferritin heavy chain” for “HO-1”, “wells. Primer sequences are as follows.” for “wells.”

[4] = tested on: γ-glutamylcysteine synthetase (γ-GCS); assay: Nrf2 target gene induction, γ-GCS mRNA (qPCR); type: cell-based, human; conditions: MDA-MB-435 cells
Description: as §3, with “FIG. 21.” for “FIGS. 17-20.”, “HO-1, TrxR1 and γ-GCS.” for “HO-1.”, “HO-1, thioredoxin reductase-1 (TrxR1), and γ-glutamylcysteine synthetase (γ-GCS)” for “HO-1”
as §3, with “FIG. 23.” for “FIGS. 17-20.”, “γ-GCS.” for “HO-1.”, “γ-glutamylcysteine synthetase (γ-GCS)” for “HO-1”
as §3, with “Nrf2 target gene induction.” for “FIGS. 17-20. Induction of HO-1.”, “HO-1, thioredoxin reductase-1 (TrxR1), γ-glutamylcysteine synthetase (γ-GCS), and ferritin heavy chain” for “HO-1”, “wells. Primer sequences are as follows.” for “wells.”

mice = conditions: sesame oil, N=4
[5] = Triterpenoid levels in mouse brain after feeding in diet (LC/MS); type: in vivo; conditions: CD-1 mice, 200 or 400 mg/kg diet for 3.5 days
Description: CD-1 mice were fed either 200 or 400 mg/kg diet of either TP-319 or TP-500 for 3.5 days, and TP levels in the brains of the mice were analyzed by LC/MS. The structures of TP-319 and TP-500 are shown below.

NQO1 = assay: Nrf2 target gene induction, NQO1; type: cell-based, human; conditions: MDA-MB-435 cells, 250 nM; fold induction above DMSO control
[6] = 400 nM, percent of induction observed for 402
[7] = 250 nM, fold induction above DMSO control

solubility at 90 min [1] | pIC50 ([2]; Mus musculus) | Compound | pIC50 (RAW264.7 macrophages; Mus musculus) | HO-1 induction (HO-1; [7]) | NQO1 induction (NQO1) | other results
1.89 µM (≈ 0.907 µg/mL) | – | CC1(C)CC[C@]2(CO)CC[C@]3(C)[C@H](C(=O)C[C@@H]4[C@@]5(C)C=C(C#N)C(=O)C(C)(C)[C@@H]5CC[C@]43C)[C@@H]2C1 [Compound 63202] | – | – | – | –
1.46 µM (≈ 0.738 µg/mL) | – | COC(=O)[C@]12CCC(C)(C)C[C@H]1[C@H]1C(=O)C=C3[C@@]4(C)C=C(C#N)C(=O)C(C)(C)[C@@H]4CC[C@@]3(C)[C@]1(C)CC2 [Compound 402, reference compound] | – | – | – | –
13.6 µM (≈ 6.92 µg/mL) | ~6.82 | COC(=O)[C@]12CCC(C)(C)C[C@H]1[C@H]1[C@@H](O)C[C@@H]3[C@@]4(C)C=C(C#N)C(=O)C(C)(C)[C@@H]4CC[C@@]3(C)[C@]1(C)CC2 [Compound 63219] | < 6.70 | – | – | –
– | ~8.00 | CC1(C)CC[C@]2(C=O)CC[C@]3(C)[C@H](C(=O)CC4[C@@]5(C)C=C(C#N)C(=O)C(C)(C)[C@@H]5CC[C@]43C)[C@@H]2C1 (stereo partly drawn) [Compound 63206, (4aR,6aR,6bR,8aS,12aS,12bR,14bR)-8a-formyl-4,4,6a,6b,11,11,14b-heptamethyl-3,13-dioxo-3,4,4a,5,6,6a,6b,7,8,8a,9,10,11,12,12a,12b,13,14,14a,14b-icosahydropicene-2-carbonitrile] | < 6.70 | 2.5 fold | 1.8 fold | γ-GCS induction [4, 7]: 4.5 fold
– | ~7.60 | CC1(C)CC[C@]2(C(N)=O)CC[C@]3(C)[C@H](C(=O)CC4[C@@]5(C)C=C(C#N)C(=O)C(C)(C)[C@@H]5CC[C@]43C)[C@@H]2C1 (stereo partly drawn) [Compound 63205, (4aS,6aR,6bR,8aR,12aR,14aR,14bS)-11-cyano-2,2,6a,6b,9,9,12a-heptamethyl-10,14-dioxo-1,2,3,4,4a,5,6,6a,6b,7,8,8a,9,10,12a,12b,13,14,14a,14b-icosahydropicene-4a-carboxamide] | < 6.70 | 1.7 fold | 1.7 fold | γ-GCS induction [4, 7]: 3.5 fold

The next lines start with the molecule.

Compound | solubility at 90 min [1] | pIC50 ([2]; Mus musculus) | pIC50 (RAW264.7 macrophages; Mus musculus) | HO-1 induction (HO-1; [7]) | NQO1 induction (NQO1) | other results
CC1(C)CC[C@]2(CN)CC[C@]3(C)[C@H](C(=O)C[C@@H]4[C@@]5(C)C=C(C#N)C(=O)C(C)(C)[C@@H]5CC[C@]43C)[C@@H]2C1 [Compound 63214] | 112 µM (≈ 53.7 µg/mL) | – | – | – | – | –
CC1(C)CC[C@]2(C(=O)O)CC[C@]3(C)[C@H](C(=O)CC4[C@@]5(C)C=C(C#N)C(=O)C(C)(C)[C@@H]5CC[C@]43C)[C@@H]2C1 (stereo partly drawn) [Compound 63196, (4aS,6aR,6bR,8aR,12aR,14aR,14bS)-11-cyano-2,2,6a,6b,9,9,12a-heptamethyl-10,14-dioxo-1,2,3,4,4a,5,6,6a,6b,7,8,8a,9,10,12a,12b,13,14,14a,14b-icosahydropicene-4a-carboxylic acid] | – | ~7.12 | < 6.70 | – | – | HO-1 induction (HO-1; [6]): 1%; TrxR1 induction [3]: 48%; γ-GCS induction [4, 6]: 26%; Number of Deaths (mice; oral gavage QDx14, 10 mg/kg): 0; Number of Deaths (mice; oral gavage QDx14, 50 mg/kg): 1*; Number of Deaths (mice; oral gavage QDx14, 100 mg/kg): 0; Number of Deaths (mice; oral gavage QDx14, 250 mg/kg): 1
CC1(C)CC[C@]2(CNC(=O)C(F)(F)F)CC[C@]3(C)[C@H](C(=O)C[C@@H]4[C@@]5(C)C=C(C#N)C(=O)C(C)(C)[C@@H]5CC[C@]43C)[C@@H]2C1 [Compound 63226] | 0.71 µM (≈ 0.408 µg/mL) | – | – | – | – | –
CC1(C)CC[C@]2(C(=O)NCC(F)(F)F)CC[C@]3(C)[C@H](C(=O)C=C4[C@@]5(C)C=C(C#N)C(=O)C(C)(C)[C@@H]5CC[C@]43C)[C@@H]2C1 [TP-500] | – | – | – | – | – | level detected in mouse brain compared with CDDO-EA (TP-319) [5]: Higher Levels
CC1(C)CC[C@]23CC[C@@]4(C)[C@]5(C)CC[C@H]6C(C)(C)C(=O)C(C#N)=C[C@]6(C)[C@H]5CC(=O)[C@@]4([C@@H]2C1)N(CC(F)(F)F)C3=O [Compound 63237] | 5.16 µM (≈ 2.96 µg/mL) | ~7.10 | < 6.70 | 3 fold | 2.3 fold | γ-GCS induction [4, 7]: 6.4 fold
Cc1cc(CNC[C@]23CCC(C)(C)C[C@H]2[C@H]2C(=O)C[C@@H]4[C@@]5(C)C=C(C#N)C(=O)C(C)(C)[C@@H]5CC[C@@]4(C)[C@]2(C)CC3)no1 [Compound 63232] | 0.75 µM (≈ 0.43 µg/mL) | – | – | – | – | –
CC1(C)CC[C@]2(C#N)CC[C@]3(C)[C@H](C(=O)CC4[C@@]5(C)C=C(C#N)C(=O)C(C)(C)[C@@H]5CC[C@]43C)[C@@H]2C1 (stereo partly drawn) [Compound 63252, (4aR,6aR,6bR,8aS,12aS,12bR,14bR)-4,4,6a,6b,11,11,14b-heptamethyl-3,13-dioxo-3,4,4a,5,6,6a,6b,7,8,8a,9,10,11,12,12a,12b,13,14,14a,14b-icosahydropicene-2,8a-dicarbonitrile] | – | ~8.30 | < 6.70 | 5 fold | 3 fold | –
COC(=O)[C@]12CCC(C)(C)C[C@H]1[C@H]1[C@H](O)C[C@@H]3[C@@]4(C)C=C(C#N)C(=O)C(C)(C)[C@@H]4CC[C@@]3(C)[C@]1(C)CC2 [Compound 63207] | – | – | – | 1.2 fold | 1.6 fold | pIC50 [2]: ~7.30; pIC50 (RAW264.7 macrophages): < 6.70; γ-GCS induction [4, 7]: 3.1 fold
CC1(C)CC[C@]2(CCO)CC[C@]3(C)[C@H](C(=O)C[C@@H]4[C@@]5(C)C=C(C#N)C(=O)C(C)(C)[C@@H]5CC[C@]43C)[C@@H]2C1 [Compound 63231] | 1.23 µM (≈ 0.607 µg/mL) | – | – | – | – | –
CC1(C)CC[C@]2([C@@H](O)CO)CC[C@]3(C)[C@H](C(=O)C[C@@H]4[C@@]5(C)C=C(C#N)C(=O)C(C)(C)[C@@H]5CC[C@]43C)[C@@H]2C1 [Compound 63221] | 8.78 µM (≈ 4.48 µg/mL) | – | – | – | – | –
